{
  "source": "ChEMBL document CHEMBL6153032",
  "about": "“Discovery of a highly potent, N-terminal domain-targeting degrader of AR-FL/AR-V7 for the treatment of prostate cancer” (Eur J Med Chem, 2025)",
  "key": {"[1]": {"experiment": "Toxicity in BALB/c mouse assessed as kidney damage at 10 mg/kg, iv administered once daily for 21 days by H and E staining based analysis", "type": "organism-based", "settings": "in vivo, 504 h, time 21 day"}, "[2]": {"test_system": "Protein cereblon/Androgen receptor (Homo sapiens), P10275+Q96SW2 [UNDEFINED MUTATION]", "sequence (P10275 whole entry, looked up, change not shown)": "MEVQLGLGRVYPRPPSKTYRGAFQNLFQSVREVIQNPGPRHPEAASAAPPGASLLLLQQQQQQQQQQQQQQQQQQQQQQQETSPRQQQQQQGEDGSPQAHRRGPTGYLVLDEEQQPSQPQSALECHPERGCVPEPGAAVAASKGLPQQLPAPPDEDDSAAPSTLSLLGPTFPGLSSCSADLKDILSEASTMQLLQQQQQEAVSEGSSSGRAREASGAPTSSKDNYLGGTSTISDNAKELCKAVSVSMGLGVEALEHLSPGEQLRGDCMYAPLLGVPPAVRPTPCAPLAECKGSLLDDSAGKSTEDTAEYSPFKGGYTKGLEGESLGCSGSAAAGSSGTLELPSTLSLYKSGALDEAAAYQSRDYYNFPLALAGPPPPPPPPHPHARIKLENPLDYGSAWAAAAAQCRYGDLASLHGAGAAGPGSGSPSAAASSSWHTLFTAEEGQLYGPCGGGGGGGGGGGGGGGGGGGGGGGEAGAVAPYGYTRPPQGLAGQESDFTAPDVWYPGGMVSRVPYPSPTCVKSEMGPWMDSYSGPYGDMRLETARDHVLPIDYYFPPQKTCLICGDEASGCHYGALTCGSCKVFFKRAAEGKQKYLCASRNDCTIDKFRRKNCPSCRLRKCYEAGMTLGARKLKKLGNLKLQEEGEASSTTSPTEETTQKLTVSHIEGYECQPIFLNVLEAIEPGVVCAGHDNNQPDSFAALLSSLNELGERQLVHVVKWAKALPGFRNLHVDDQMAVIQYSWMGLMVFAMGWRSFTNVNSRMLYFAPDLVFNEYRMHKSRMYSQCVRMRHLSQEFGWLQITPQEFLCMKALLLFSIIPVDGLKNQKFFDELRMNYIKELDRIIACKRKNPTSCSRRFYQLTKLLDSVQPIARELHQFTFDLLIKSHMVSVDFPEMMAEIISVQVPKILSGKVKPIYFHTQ", "sequence (Q96SW2 whole entry, looked up, change not shown)": "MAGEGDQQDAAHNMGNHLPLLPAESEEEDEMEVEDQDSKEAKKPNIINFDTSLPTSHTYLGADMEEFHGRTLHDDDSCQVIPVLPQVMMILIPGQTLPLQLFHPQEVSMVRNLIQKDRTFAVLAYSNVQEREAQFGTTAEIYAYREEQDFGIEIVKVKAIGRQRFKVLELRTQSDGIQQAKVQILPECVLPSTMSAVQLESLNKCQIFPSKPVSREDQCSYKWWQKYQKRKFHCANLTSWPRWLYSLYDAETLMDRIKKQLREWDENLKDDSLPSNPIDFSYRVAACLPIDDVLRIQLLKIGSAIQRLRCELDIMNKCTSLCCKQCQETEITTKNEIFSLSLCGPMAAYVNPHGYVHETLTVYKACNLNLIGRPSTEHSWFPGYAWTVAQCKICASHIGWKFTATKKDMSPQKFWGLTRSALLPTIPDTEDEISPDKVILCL", "experiment": "PROTAC activity at AR-V7/CRBN in human 22Rv1 cells assessed as induction of AR-V7 degradation at 100 nM incubated for 12 hrs in presence of Thalidomide by Western blot analysis", "type": "cell-based", "settings": "CWR22R"}, "[3]": {"experiment": "Antiproliferative activity against human RWPE-1 cells assessed as cell viability incubated for 4 days by CCK-8 assay", "type": "toxicity, cell-based"}, "[4]": {"experiment": "Clearance in Sprague-Dawley rat 2 mg/kg, iv by LC-MS/MS analysis", "type": "ADME, organism-based", "settings": "in vivo"}, "[5]": {"experiment": "MRT (0 to t) in Sprague-Dawley rat 2 mg/kg, iv by LC-MS/MS analysis", "type": "ADME, organism-based", "settings": "in vivo"}, "[6]": {"experiment": "Cmax in Sprague-Dawley rat 2 mg/kg, iv by LC-MS/MS analysis", "type": "ADME, organism-based", "settings": "in vivo"}, "[7]": {"experiment": "Metabolic stability in rat liver microsome assessed as half life measured upto 45 mins by LC/MS analysis", "type": "ADME", "settings": "liver microsomes"}, "[8]": {"test_system": "DU-145", "experiment": "Antiproliferative activity against human DU-145 cells assessed as cell viability incubated for 4 days by CCK-8 assay", "type": "functional, cell-based", "settings": "DU-145, 96 h"}, "[9]": {"target": "T1, Protein cereblon/Androgen receptor (Homo sapiens, UniProt P10275+Q96SW2)", "experiment": "PROTAC activity at full length Androgen receptor/CRBN in human 22Rv1 cells assessed as induction of full length Androgen receptor degradation at 5 uM incubated for 24 hrs by Western blot analysis relative to control", "type": "cell-based"}, "[10]": {"experiment": "Antiproliferative activity against human MCF-10A cells assessed as cell viability incubated for 4 days by CCK-8 assay", "type": "toxicity, cell-based"}, "[11]": {"test_system": "Protein cereblon/Androgen receptor (Homo sapiens), P10275+Q96SW2 [UNDEFINED MUTATION]", "experiment": "PROTAC activity at AR-V7/CRBN in human 22Rv1 cells assessed as induction of AR-V7 degradation at 0.1 uM incubated for 24 hrs in presence of CHX by Western blot analysis", "type": "cell-based", "settings": "CWR22R"}, "[12]": {"target": "T1, Protein cereblon/Androgen receptor", "experiment": "PROTAC activity at full length Androgen receptor/CRBN in human 22Rv1 cells assessed as induction of full length androgen receptor degradation at 100 nM incubated for 12 hrs in presence of MG132 by Western blot analysis", "type": "cell-based"}, "[13]": {"experiment": "Tmax in Sprague-Dawley rat 2 mg/kg, iv by LC-MS/MS analysis", "type": "ADME, organism-based", "settings": "in vivo"}, "[14]": {"test_system": "Protein cereblon/Androgen receptor (Homo sapiens), P10275+Q96SW2 [UNDEFINED MUTATION]", "experiment": "PROTAC activity at AR-V7/CRBN in human 22Rv1 cells assessed as induction of AR-V7 degradation at 1 uM incubated for 24 hrs by Western blot analysis relative to control", "type": "cell-based", "settings": "CWR22R"}, "[15]": {"test_system": "CWR22R", "experiment": "Downregulation of PSA mRNA level in human 22Rv1 cells incubated for 24 hrs by qRT-PCR analysis", "type": "functional, cell-based", "settings": "dose 100-500 nM"}, "[16]": {"test_system": "Protein cereblon/Androgen receptor (Homo sapiens), P10275+Q96SW2 [UNDEFINED MUTATION]", "experiment": "PROTAC activity at AR-V7/CRBN in human 22Rv1 cells assessed as induction of AR-V7 degradation at 5 uM incubated for 24 hrs by Western blot analysis relative to control", "type": "cell-based", "settings": "CWR22R"}, "[17]": {"test_system": "CWR22R", "experiment": "Downregulation of UBE2C mRNA level in human 22Rv1 cells incubated for 24 hrs by qRT-PCR analysis", "type": "functional, cell-based", "settings": "dose 100-500 nM"}, "[18]": {"target": "T1, Protein cereblon/Androgen receptor", "experiment": "PROTAC activity at full length Androgen receptor/CRBN in human 22Rv1 cells assessed as reduction in full length androgen receptor level incubated for 24 hrs by Western blot analysis", "type": "cell-based"}, "[19]": {"target": "Protein cereblon/Estrogen receptor (Homo sapiens) (UniProt P03372+Q96SW2)", "sequence (P03372 whole entry, looked up)": "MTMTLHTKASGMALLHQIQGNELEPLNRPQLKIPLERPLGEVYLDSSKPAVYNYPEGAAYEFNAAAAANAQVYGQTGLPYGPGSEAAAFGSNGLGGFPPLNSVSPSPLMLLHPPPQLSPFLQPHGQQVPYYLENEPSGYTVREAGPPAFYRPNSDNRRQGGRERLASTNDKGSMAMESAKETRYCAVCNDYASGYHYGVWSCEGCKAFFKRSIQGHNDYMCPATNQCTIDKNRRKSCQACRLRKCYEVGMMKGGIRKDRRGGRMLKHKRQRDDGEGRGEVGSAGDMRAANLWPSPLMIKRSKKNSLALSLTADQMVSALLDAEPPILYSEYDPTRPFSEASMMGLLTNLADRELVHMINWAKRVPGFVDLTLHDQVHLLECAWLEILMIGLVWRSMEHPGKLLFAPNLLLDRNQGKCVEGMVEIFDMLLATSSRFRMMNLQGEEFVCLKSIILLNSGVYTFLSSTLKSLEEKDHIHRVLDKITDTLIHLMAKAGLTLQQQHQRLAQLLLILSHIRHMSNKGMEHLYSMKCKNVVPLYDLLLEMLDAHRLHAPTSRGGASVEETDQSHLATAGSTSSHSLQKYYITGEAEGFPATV", "sequence (Q96SW2 whole entry, looked up)": "as the sequence (Q96SW2 whole entry, looked up, change not shown) above", "experiment": "PROTAC activity at CRBN/ERalpha in human 22Rv1 cells assessed as reduction in ERalpha protein level at 0.01 to 5 uM measured after 24 hrs by Western blot analysis", "type": "cell-based", "settings": "dose 0.01-5 µM"}, "[20]": {"test_system": "CWR22R", "experiment": "Induction of apoptosis in human 22Rv1 cells assessed as necrotic cells at 500 nM incubated for 48 hrs by Annexin V/FITC staining based flow cytometry analysis (reference value: 2.31 %)", "type": "functional"}, "[21]": {"target": "T1, Protein cereblon/Androgen receptor", "experiment": "PROTAC activity at full length Androgen receptor/CRBN in human 22Rv1 cells assessed as reduction in full length androgen receptor level at 1 uM by Western blot analysis", "type": "cell-based", "settings": "time 6.0 hrs"}, "[22]": {"experiment": "Toxicity in BALB/c mouse assessed as spleen damage at 10 mg/kg, iv administered once daily for 21 days by H and E staining based analysis", "type": "organism-based", "settings": "in vivo, 504 h, time 21 day"}, "[23]": {"target": "T1, Protein cereblon/Androgen receptor", "experiment": "PROTAC activity at full length Androgen receptor/CRBN in human 22Rv1 cells assessed as induction of full length Androgen receptor degradation at 1 uM incubated for 24 hrs by Western blot analysis relative to control", "type": "cell-based"}, "[24]": {"test_system": "CWR22R", "experiment": "Antiproliferative activity against human 22Rv1 cells incubated for 4 days by CCK-8 assay", "type": "functional, cell-based", "settings": "22Rv1, 96 h"}, "[25]": {"test_system": "CWR22R", "experiment": "Antitumor activity against human 22Rv1 cells xenografted in BALB/c nude mouse assessed as reduction in AR level at 10 mg/kg, iv administered once daily for 21 days", "type": "functional, organism-based", "settings": "time 21.0 day"}, "[26]": {"test_system": "Protein cereblon/Androgen receptor (Homo sapiens), P10275+Q96SW2 [UNDEFINED MUTATION]", "experiment": "PROTAC activity at AR-V7/CRBN in human 22Rv1 cells assessed as reduction in AR-V7 level at 1 uM by Western blot analysis", "type": "cell-based", "settings": "CWR22R, time 6.0 hrs"}, "[27]": {"target": "T1, Protein cereblon/Androgen receptor", "experiment": "PROTAC activity at full length Androgen receptor/CRBN in human 22Rv1 cells assessed as reduction in full length androgen receptor level at 100 nM incubated for 24 hrs by immunofluorescence analysis", "type": "cell-based"}, "[28]": {"test_system": "CWR22R", "experiment": "Antitumor activity against human 22Rv1 cells xenografted in BALB/c nude mouse assessed as suppression of tumor growth at 10 mg/kg, iv administered once daily for 21 days", "type": "functional, organism-based", "settings": "time 21.0 day"}, "[29]": {"test_system": "Protein cereblon/Androgen receptor (Homo sapiens), P10275+Q96SW2 [UNDEFINED MUTATION]", "experiment": "PROTAC activity at AR-V7/CRBN in human 22Rv1 cells assessed as reduction in AR-V7 level at 100 nM incubated for 24 hrs by immunofluorescence analysis", "type": "cell-based", "settings": "CWR22R"}, "[30]": {"test_system": "CWR22R", "experiment": "Induction of apoptosis in human 22Rv1 cells assessed as late apoptotic cells at 100 nM incubated for 48 hrs by Annexin V/FITC staining based flow cytometry analysis (reference value: 1.12 %)", "type": "functional"}, "[31]": {"experiment": "AUC (0 to infinity) in Sprague-Dawley rat 2 mg/kg, iv by LC-MS/MS analysis", "type": "ADME, organism-based", "settings": "in vivo"}, "[32]": {"test_system": "CWR22R", "experiment": "Induction of apoptosis in human 22Rv1 cells assessed as viable cells at 100 nM incubated for 48 hrs by Annexin V/FITC staining based flow cytometry analysis (reference value: 94.49%)", "type": "functional", "settings": "read-out: Activity"}, "[33]": {"test_system": "CWR22R", "experiment": "Induction of cell cycle arrest in human 22Rv1 cells assessed as accumulation of cells at G0/G1 phase at 500 nM incubated for 24 hrs by PI staining based flow cytometry analysis (reference value: 62.66%)", "type": "functional"}, "[34]": {"target": "T1, Protein cereblon/Androgen receptor", "experiment": "PROTAC activity at full length Androgen receptor/CRBN in human LNCaP cells assessed as reduction in full length androgen receptor level at 1 uM by Western blot analysis", "type": "cell-based", "settings": "time <= 4.0 hrs"}, "[35]": {"test_system": "Protein cereblon/Androgen receptor (Homo sapiens), P10275+Q96SW2 [UNDEFINED MUTATION]", "experiment": "PROTAC activity at AR-V7/CRBN in human 22Rv1 cells assessed as induction of AR-V7 degradation at 100 nM incubated for 12 hrs in presence of MLN4924 by Western blot analysis", "type": "cell-based", "settings": "CWR22R"}, "[36]": {"test_system": "CWR22R", "experiment": "Downregulation of TMPRSS2 mRNA level in human 22Rv1 cells incubated for 24 hrs by qRT-PCR analysis", "type": "functional, cell-based", "settings": "dose 100-500 nM"}},
  "note": "Calls of active or inactive are those of the source. No cut-off for these calls is given here.",
  "data": [
    {"compound": "CC(C)(c1ccc(OCCNc2cccc3c2C(=O)N(C2CCC(=O)NC2=O)C3=O)cc1)c1ccc(OCc2cccc(N3CCOCC3)n2)cc1", "note": "(configuration not stated)", "values": [
      {"measurement": "Activity", "setting": "[1]", "value": "Non-toxic"},
      {"measurement": "Activity", "setting": "[2]", "value": "Active"},
      {"measurement": "IC50 at 4 days", "setting": "[3]", "value": "> 80000", "unit": "nM"},
      {"measurement": "clearance", "setting": "[4]", "value": 15.1, "unit": "mL/min/kg"},
      {"measurement": "MRT last", "setting": "[5]", "value": 32.4, "unit": "min"},
      {"measurement": "Cmax", "setting": "[6]", "value": 6440, "unit": "ng/mL"},
      {"measurement": "half-life", "setting": "[7]", "value": 61.1, "unit": "min"},
      {"measurement": "IC50", "setting": "[8]", "value": "> 80000", "unit": "nM"},
      {"measurement": "Activity", "setting": "[9]", "value": 90.2, "unit": "%"},
      {"measurement": "IC50 at 4 days", "setting": "[10]", "value": "> 80000", "unit": "nM"},
      {"measurement": "Activity", "setting": "[11]", "value": "Active"},
      {"measurement": "Activity", "setting": "[12]", "value": "Active"},
      {"measurement": "Tmax", "setting": "[13]", "value": 4.98, "unit": "min"},
      {"measurement": "Activity", "setting": "[14]", "value": 88.7, "unit": "%"},
      {"measurement": "Activity", "setting": "[15]", "value": "Dose-dependent-effect"},
      {"measurement": "Activity", "setting": "[16]", "value": 89.6, "unit": "%"},
      {"measurement": "Activity", "setting": "[17]", "value": "Dose-dependent-effect"},
      {"measurement": "DC50", "setting": "[18]", "value": 180, "unit": "nM"},
      {"measurement": "Activity", "setting": "[18]; dose <= 5.0 µM", "value": "Dose-dependent-effect"},
      {"measurement": "Activity", "setting": "[19]", "value": "Active"},
      {"measurement": "Activity", "setting": "[20]", "value": 2.4, "unit": "%"},
      {"measurement": "Activity", "setting": "[21]", "value": "Time-dependent-effect"},
      {"measurement": "Activity", "setting": "[22]", "value": "Non-toxic"},
      {"measurement": "Activity", "setting": "[23]", "value": 89.2, "unit": "%"},
      {"measurement": "IC50", "setting": "[24]", "value": 38, "unit": "nM"},
      {"measurement": "Activity", "setting": "[25]", "value": "Active"},
      {"measurement": "Activity", "setting": "[26]", "value": "Time-dependent-effect"},
      {"measurement": "Activity", "setting": "[27]", "value": "Active"},
      {"measurement": "Activity", "setting": "[28]", "value": "Active"},
      {"measurement": "Activity", "setting": "[29]", "value": "Active"},
      {"measurement": "Activity", "setting": "[30]", "value": 12.29, "unit": "%"},
      {"measurement": "AUC(0-inf)", "setting": "[31]", "value": 2220, "unit": "ng·h/mL"},
      {"measurement": "viability at 0.1 µM", "setting": "[32]", "value": 71, "unit": "%"},
      {"measurement": "Activity", "setting": "[33]", "value": 39.88, "unit": "%"},
      {"measurement": "Activity", "setting": "[34]", "value": "Dose-dependent-effect"},
      {"measurement": "Activity", "setting": "[35]", "value": "Active"},
      {"measurement": "Activity", "setting": "[36]", "value": "Dose-dependent-effect"}
    ]}
  ]
}
